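Tested at 5 concentrations; 48 h exposure; 96-well plates; endpoints linearly interpolated, else capped at highest concentration. At the GI50, growth is halved.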 Active and inactive are the calls of the source. Rule as the data show it: active = GI50 up to about 1.1 µM and inactive = higher.
Columns and labels:
Assay in all cases: NCI-60 cell line screen, 48 h
MDA-N = tested on: MDA-N
SK-MEL-28 = tested on: SK-MEL-28
A549 = tested on: A549
SNB-19 = tested on: SNB-19
NCI-H522 = tested on: NCI-H522
SF-295 = tested on: SF-295
NCI-H23 = tested on: NCI-H23
CAKI-1 = tested on: CAKI-1
UACC-257 = tested on: UACC-257
EKVX = tested on: EKVX
OVCAR-8 = tested on: OVCAR-8
MDA-MB-231 = tested on: MDA-MB-231
UACC-62 = tested on: UACC-62
SK-OV-3 = tested on: SK-OV-3
HCT-116 = tested on: HCT-116
SF-268 = tested on: SF-268
Malme-3M = tested on: Malme-3M
HT-29 = tested on: HT-29
NCI-H226 = tested on: NCI-H226
NCI-H460 = tested on: NCI-H460
RXF 393 = tested on: RXF 393
MDA-MB-435 = tested on: MDA-MB-435
HL-60 = tested on: HL-60
UO-31 = tested on: UO-31
HOP-92 = tested on: HOP-92
MCF7 = tested on: MCF7
HCC 2998 = tested on: HCC 2998
PC-3 = tested on: PC-3
U-251 = tested on: U-251
M14 = tested on: M14
SK-MEL-2 = tested on: SK-MEL-2
KM12 = tested on: KM12
SK-MEL-5 = tested on: SK-MEL-5
A498 = tested on: A498
NCI/ADR-RES = tested on: NCI/ADR-RES
786-0 = tested on: 786-0
SN12C = tested on: SN12C
HOP-62 = tested on: HOP-62
IGROV-1 = tested on: IGROV-1
BT-549 = tested on: BT-549
SF-539 = tested on: SF-539
LOX IMVI = tested on: LOX IMVI
SNB-75 = tested on: SNB-75
COLO 205 = tested on: COLO 205
MOLT-4 = tested on: MOLT-4
DU-145 = tested on: DU-145
K562 = tested on: K562
OVCAR-4 = tested on: OVCAR-4
TK-10 = tested on: TK-10
ACHN = tested on: ACHN
Hs-578T = tested on: Hs-578T
RPMI-8226 = tested on: RPMI-8226
HCT-15 = tested on: HCT-15
OVCAR-5 = tested on: OVCAR-5
OVCAR-3 = tested on: OVCAR-3
SW-620 = tested on: SW-620
CCRF-CEM = tested on: CCRF-CEM
T47D = tested on: T47D
SR = tested on: SR

For `CN(C)/C=C/c1ccnc2c1C(=O)c1ccccc1C2=O`, the GI50 (MDA-N) was 1.32 µM (inactive), the GI50 (SK-MEL-28) was 2.48 µM (inactive) and the GI50 (A549) was 8.99 µM (inactive). For the same compound, the GI50 (SNB-19) was 5.89 µM (inactive), the GI50 (NCI-H522) was 8.51 µM (inactive) and the GI50 (SF-295) was 4.56 µM (inactive). The GI50 (NCI-H23) was 2.48 µM (inactive), the GI50 (CAKI-1) was 16.3 µM (inactive) and the GI50 (UACC-257) was 2.25 µM (inactive). The GI50 (EKVX) was 18.3 µM (inactive), the GI50 (OVCAR-8) was 15.5 µM (inactive) and the GI50 (MDA-MB-231) was 30.6 µM (inactive). For the same compound, the GI50 (UACC-62) was 1.38 µM (inactive), the GI50 (SK-OV-3) was 44 µM (inactive) and the GI50 (HCT-116) was 3.22 µM (inactive). For the same compound, the GI50 (SF-268) was 13.6 µM (inactive), the GI50 (Malme-3M) was 2.03 µM (inactive) and the GI50 (HT-29) was 14.8 µM (inactive). The GI50 (NCI-H226) was 10.5 µM (inactive), the GI50 (NCI-H460) was 2.35 µM (inactive) and the GI50 (RXF 393) was > 59.3 µM (inactive). The GI50 (MDA-MB-435) was 1.35 µM (inactive), the GI50 (HL-60) was 10.9 µM (inactive) and the GI50 (UO-31) was 7.48 µM (inactive). For the same compound, the GI50 (HOP-92) was 31.8 µM (inactive), the GI50 (MCF7) was 4.46 µM (inactive) and the GI50 (HCC 2998) was 7.64 µM (inactive). The GI50 (PC-3) was 8 µM (inactive), the GI50 (U-251) was 15.2 µM (inactive) and the GI50 (M14) was 1.92 µM (inactive). For the same compound, the GI50 (SK-MEL-2) was 3.65 µM (inactive), the GI50 (KM12) was 9.66 µM (inactive) and the GI50 (SK-MEL-5) was 1.28 µM (inactive). The GI50 (A498) was 31.9 µM (inactive), the GI50 (NCI/ADR-RES) was 19 µM (inactive) and the GI50 (786-0) was 17.2 µM (inactive). For the same compound, the GI50 (SN12C) was 5.2 µM (inactive), the GI50 (HOP-62) was 15.6 µM (inactive) and the GI50 (IGROV-1) was 12.2 µM (inactive). The GI50 (BT-549) was 3.59 µM (inactive), the GI50 (SF-539) was 12.9 µM (inactive) and the GI50 (LOX IMVI) was 2.79 µM (inactive). The GI50 (SNB-75) was 5.33 µM (inactive), the GI50 (COLO 205) was 24.9 µM (inactive) and the GI50 (MOLT-4) was 22.5 µM (inactive). For the same compound, the GI50 (DU-145) was 1.73 µM (inactive), the GI50 (K562) was 2.45 µM (inactive) and the GI50 (OVCAR-4) was 23.4 µM (inactive). For the same compound, the GI50 (TK-10) was > 92.7 µM (inactive), the GI50 (ACHN) was 6.73 µM (inactive) and the GI50 (Hs-578T) was 2.78 µM (inactive). The GI50 (RPMI-8226) was 3.48 µM (inactive), the GI50 (HCT-15) was 3.34 µM and the GI50 (OVCAR-5) was 17.3 µM (inactive). For the same compound, the GI50 (OVCAR-3) was 3.74 µM (inactive), the GI50 (SW-620) was 3.21 µM (inactive) and the GI50 (CCRF-CEM) was 16.5 µM (inactive). The GI50 (T47D) was > 48.4 µM (inactive).

With `O=C(NCCCNCCCCNCCCNC(=O)C(F)(F)F)C(F)(F)F` the GI50 (MDA-N) was > 100 µM (inactive), the GI50 (SK-MEL-28) was > 100 µM (inactive) and the GI50 (A549) was > 100 µM (inactive). For the same compound, the GI50 (NCI-H522) was > 100 µM (inactive), the GI50 (SF-295) was > 100 µM (inactive) and the GI50 (NCI-H23) was > 100 µM (inactive). The GI50 (CAKI-1) was 20 µM (inactive), the GI50 (UACC-257) was > 100 µM (inactive) and the GI50 (EKVX) was > 100 µM (inactive). The GI50 (OVCAR-8) was > 100 µM (inactive), the GI50 (MDA-MB-231) was > 100 µM (inactive) and the GI50 (UACC-62) was > 100 µM (inactive). For the same compound, the GI50 (SK-OV-3) was > 100 µM (inactive), the GI50 (HCT-116) was > 100 µM (inactive) and the GI50 (SF-268) was > 100 µM (inactive). The GI50 (Malme-3M) was > 100 µM (inactive), the GI50 (HT-29) was > 100 µM (inactive) and the GI50 (NCI-H226) was > 100 µM (inactive). The GI50 (NCI-H460) was > 100 µM (inactive), the GI50 (RXF 393) was > 100 µM (inactive) and the GI50 (MDA-MB-435) was > 100 µM (inactive). For the same compound, the GI50 (HL-60) was 46.1 µM (inactive), the GI50 (UO-31) was > 100 µM (inactive) and the GI50 (MCF7) was > 100 µM (inactive). The GI50 (HCC 2998) was 76.4 µM (inactive), the GI50 (PC-3) was > 100 µM (inactive) and the GI50 (U-251) was > 100 µM (inactive). For the same compound, the GI50 (M14) was > 100 µM (inactive), the GI50 (SK-MEL-2) was > 100 µM (inactive) and the GI50 (KM12) was > 100 µM (inactive). The GI50 (SK-MEL-5) was > 100 µM (inactive), the GI50 (A498) was > 100 µM (inactive) and the GI50 (NCI/ADR-RES) was > 100 µM (inactive). The GI50 (786-0) was > 100 µM (inactive), the GI50 (SN12C) was 52.6 µM (inactive) and the GI50 (HOP-62) was > 100 µM (inactive). For the same compound, the GI50 (IGROV-1) was > 100 µM (inactive), the GI50 (BT-549) was > 100 µM (inactive) and the GI50 (SF-539) was > 100 µM (inactive). For the same compound, the GI50 (LOX IMVI) was > 100 µM (inactive), the GI50 (SNB-75) was > 100 µM (inactive) and the GI50 (COLO 205) was > 100 µM (inactive). The GI50 (MOLT-4) was 0.359 µM (active), the GI50 (DU-145) was > 100 µM (inactive) and the GI50 (OVCAR-4) was > 100 µM (inactive). For the same compound, the GI50 (TK-10) was > 100 µM (inactive), the GI50 (ACHN) was > 100 µM (inactive) and the GI50 (Hs-578T) was > 100 µM (inactive). The GI50 (RPMI-8226) was > 100 µM (inactive), the GI50 (HCT-15) was over 100 µM and the GI50 (OVCAR-5) was > 100 µM (inactive). For the same compound, the GI50 (OVCAR-3) was > 100 µM (inactive), the GI50 (SW-620) was 54.8 µM (inactive) and the GI50 (CCRF-CEM) was > 100 µM (inactive). The GI50 (T47D) was > 100 µM (inactive).

`C[C@]12CC[C@H](O)C=C1CC[C@@H]1[C@@H]2CC[C@]2(C)C(=N/O)/C(=C/c3ccncc3)C[C@@H]12` was tested, and the GI50 (MDA-N) was 9.51 µM (inactive), the GI50 (SK-MEL-28) was 19.7 µM (inactive) and the GI50 (A549) was 5.19 µM (inactive). For the same compound, the GI50 (SNB-19) was 11.9 µM (inactive), the GI50 (NCI-H522) was 9.35 µM (inactive) and the GI50 (SR) was 3.4 µM (inactive). The GI50 (SF-295) was 12.2 µM (inactive), the GI50 (NCI-H23) was 16.1 µM (inactive) and the GI50 (CAKI-1) was 14.9 µM (inactive). The GI50 (UACC-257) was 7.67 µM (inactive), the GI50 (EKVX) was 16.4 µM (inactive) and the GI50 (OVCAR-8) was 16 µM (inactive). For the same compound, the GI50 (MDA-MB-231) was 11.1 µM (inactive), the GI50 (UACC-62) was 5.98 µM (inactive) and the GI50 (SK-OV-3) was 15.6 µM (inactive). The GI50 (HCT-116) was 5 µM (inactive), the GI50 (SF-268) was 15.2 µM (inactive) and the GI50 (Malme-3M) was 17.5 µM (inactive). For the same compound, the GI50 (HT-29) was 4.04 µM (inactive), the GI50 (NCI-H226) was 10.2 µM (inactive) and the GI50 (NCI-H460) was 6.1 µM (inactive). The GI50 (RXF 393) was 5.87 µM (inactive), the GI50 (MDA-MB-435) was 11.1 µM (inactive) and the GI50 (HL-60) was < 0.01 µM (active). For the same compound, the GI50 (UO-31) was 3.68 µM (inactive), the GI50 (HOP-92) was 7.48 µM (inactive) and the GI50 (MCF7) was 3.87 µM (inactive). For the same compound, the GI50 (HCC 2998) was 3.84 µM (inactive), the GI50 (PC-3) was 2.65 µM (inactive) and the GI50 (U-251) was 6.64 µM (inactive). The GI50 (M14) was 5.7 µM (inactive), the GI50 (SK-MEL-2) was 10.3 µM (inactive) and the GI50 (KM12) was 8 µM (inactive). The GI50 (SK-MEL-5) was 5.01 µM (inactive), the GI50 (NCI/ADR-RES) was 17.5 µM (inactive) and the GI50 (786-0) was 12.9 µM (inactive). For the same compound, the GI50 (SN12C) was 12.1 µM (inactive), the GI50 (HOP-62) was 13.2 µM (inactive) and the GI50 (IGROV-1) was 14.8 µM (inactive). For the same compound, the GI50 (BT-549) was 20 µM (inactive), the GI50 (SF-539) was 5.53 µM (inactive) and the GI50 (LOX IMVI) was 11.5 µM (inactive). The GI50 (SNB-75) was 14.4 µM (inactive), the GI50 (COLO 205) was 11.7 µM (inactive) and the GI50 (MOLT-4) was 4.43 µM (inactive). The GI50 (DU-145) was 6.34 µM (inactive), the GI50 (K562) was 5.13 µM (inactive) and the GI50 (OVCAR-4) was 10.1 µM (inactive). The GI50 (TK-10) was 12.4 µM (inactive), the GI50 (ACHN) was 8.43 µM (inactive) and the GI50 (Hs-578T) was 19.4 µM (inactive). For the same compound, the GI50 (RPMI-8226) was 3.78 µM (inactive), the GI50 (HCT-15) was 5.19 µM and the GI50 (OVCAR-5) was 19.2 µM (inactive). For the same compound, the GI50 (OVCAR-3) was 5.53 µM (inactive), the GI50 (SW-620) was 23 µM (inactive) and the GI50 (CCRF-CEM) was 7.96 µM (inactive). The GI50 (T47D) was 5.38 µM (inactive).
